Measurements reported in patent US20160193188A1, “METHODS AND COMPOSITIONS FOR INCREASING THE EFFECTIVENESS OF ANTIVIRAL AGENTS” (ANTIVIRUS THERAPEUTICS, priority 2013, published 2016).
Read-outs that look alike come from different tables or passages of the source.

What was measured:
[1] = system: rhinovirus type 39; test: Study 843-203: experimentally induced human rhinovirus respiratory infection in healthy adults, antiviral and clinical efficacy; type: in vivo
Method: Subjects were confined to a clinical facility with on-site medical surveillance from Day −2 through Day 5; outpatient follow-up visits were conducted on Days 5-7. On Day −1, 24 hours before administration of the first dose of study drug, each subject received an intranasal inoculation of 100-300 tissue culture infective dose 50% (TCID50) rhinovirus type 39. Nasal wash specimens were collected pre-inoculation and once or twice daily at predetermined time points on Days 1-7 for virologic determinations. Nasal mucus weights were determined daily through Day 4. The presence and severity of clinical symptoms were assessed throughout the study period. […] One subject in the pleconaril BID nasal spray group had study drug interrupted temporarily due to “blood in nasal mucus” observed on Day 1; this event was considered mild and resolved without treatment, and the subject completed BID dosing on Days 2 and 3.
Primary Endpoint: Log-transformed virus titers from serial nasal wash samples in Study 843-203 are shown in FIG. 2 for virology evaluable subjects (i.e., those subjects with a pre-inoculation serum neutralizing antibody titer to rhinovirus type 39 ˜1:2 and reverse transcriptase polymerase chain reaction [RT-PCR] and culture negative nasal wash sample and at least one post baseline nasal wash sample that was RT-PCR or culture positive). At the time of maximum viral titers (Day 2 AM) in the combined vehicle groups, median viral titers in each pleconaril group were 0.78-1.26 log lower than vehicle groups, and viral titers in the combined pleconaril BID/TID groups were 1 log lower than the vehicle groups.

[2] = Study 843-203: safety and tolerability in healthy adults; type: in vivo, human; conditions: healthy volunteers
[3] = 25° C.; cited from earlier work
[4] = system: CYP 3A; conditions: oral delivery, 200-400 mg dose level, cited from earlier work
[5] = system: human respiratory picornavirus; conditions: oral dosage form; cited from earlier work
[6] = 12 mg per day nasal spray; cited from earlier work

## Cc1cc(CCCOc2c(C)cc(-c3noc(C(F)(F)F)n3)cc2C)on1 [pleconaril, 3-{3,5-dimethyl-4-[3-(3-methylisoxazol-5-yl)propoxy]phenyl}-5-(trifluoromethyl)-1,2,4-oxadiazole]
[1]; Day 1 PM to Day 7
  repeated measures analysis of viral titers, between-group comparison: not significant
[1]; each pleconaril treatment group (intranasal and oral), initiation of study drug through Day 3 AM
  median log-transformed viral titers vs vehicle groups: lower than the vehicle groups at all measured time points
[1]; nasal and oral pleconaril groups
  nasal mucus weights vs combined vehicle controls: significantly lower nasal mucus weights
[1]; nasal and oral pleconaril groups, through day 3 post infection
  benefit vs. vehicle: showed benefit vs. vehicle
[1]; nasal spray BID, nasal spray TID or oral
  effect on common cold symptom duration and viral titers: effective in reducing common cold symptom duration and viral titers
[1]; nasal wash, Day 2 AM (time of maximum viral titers), each pleconaril group
  median viral titers lower than vehicle groups: 0.78-1.26 log
[1]; nasal wash, Day 2 AM, combined pleconaril BID/TID groups
  viral titers lower than vehicle groups: 1 log
[2]
  serious adverse events: No serious adverse events
[3]
  solubility in water: < 0.02 µg/mL
[4]
  CYP 3A / CYP 3A4 induction: inducer of CYP 3A4
[4]; listed as Pleconaril
  CYP 3A / CYP 3A4 induction: induction of CYP 3A
[5]
  activity against human respiratory picornavirus: broad activity
[6]
  clinical/antiviral effect compared with 400 mg oral dose: roughly similar clinical/antiviral effect
  systemic exposure: without any significant systemic exposure
